Our source for the EC50 and GFP fluorescence, lower = active (kMESF (background-subtracted)) values is PubChem BioAssay AID2740 (NMMLSC, 2010).

Values joined by “and” are separate entries in the source; they are usually repeats but may differ in a detail not shown here. Equal values may be shown once. Active and inactive are the calls of the source.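 How the source made its calls: active means compounds whose fitted half-maximal concentration for changing the GFP signal is at or below a set limit; inactive means the rest.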

The subject of one test is S. cerevisiae RPL19A-GFP strain, flow cytometry fluorescence, 3 h. Nature of the test: TOR pathway RPL19A-GFP modulators, concentration series – cell-based, S. cerevisiae, flow cytometry, MLPCN hits, dose response (AID 2740).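 On GFP fluorescence, lower = active: background is signal of the same compound in parental non-GFP s288c yeast.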
Details: not given
(A flow cytometer gives signals particle by particle.)
As a reminder, the EC50 is the concentration that produces a half-maximal response. Regarding `O=C(Nc1ccccc1)c1nnsc1S(=O)(=O)c1ccc(Cl)cc1`, the EC50 is 2.5 µM.

For the molecule `CCOC(=O)/C(=C\c1cn(C)c2ccccc12)[N+](=O)[O-]`, the EC50 was 4.95 µM. The same measure, in the same setting: for `CCc1ccc2c(c1)/C(=C/C(=O)c1cccs1)C(=O)N2` the value was 4.42 µM; for `C#CCOCCOCCOCCNc1nc(N2CCN(C(=O)CCCCCCCCCCNC(=O)[C@H](CCCCN)n3cc(CCO)nn3)CC2)nc(N2CCN(C(=O)CCCCCCCCCCNC(=O)[C@H](CCCN=C(N)N)n3cc(C[C@@H](C)CC)nn3)CC2)n1`, 10 µM; for `O=C(OCC(=O)N1CCN(C(=O)c2ccco2)CC1)c1cc(-c2ccc(F)cc2)nc2ccccc12`, 5.05 µM. Same read-out and setting: for `O=C1NC(=O)N(Cc2ccco2)C(=O)/C1=C/c1ccc(-c2cccc([N+](=O)[O-])c2)o1` the value was 11.2 µM. `O=C(CSC1=NS(=O)(=O)c2ccccc21)Nc1ccccc1`: the EC50 was 5.5 µM.

With `COc1cc(/C=C/[N+](=O)[O-])ccc1O`, the EC50 was 32.1 µM. Regarding `CCc1nc2ccccc2c(=O)n1NC(=O)c1c(O)c2ccccc2n(CC)c1=O`, the EC50 was 7.44 µM. Still for that read-out and setting: for `CCOC(=O)C(C(=O)OCC)C(C(=O)OCC)N1CCOCC1` (stereo unspecified) the value was 14.2 µM; for `O=C(/C=C/c1cccc([N+](=O)[O-])c1)c1ccc([N+](=O)[O-])o1`, 3.5 µM; for `CC1=NNC(=O)/C1=C\c1cn(-c2ccccc2)nc1-c1ccccc1`, 11.4 µM. Same read-out and setting: for `COc1ccc([N+](=O)[O-])c(S(=O)(=O)c2ccc(Cl)cc2)n1` the value was 13.1 µM; for `O=C(OCC(=O)N1CCN(C(=O)c2ccco2)CC1)c1cc(-c2cccc(Br)c2)nc2ccccc12`, 3.18 µM; for `O=C1C=CC(=O)N1c1ccc(O)cc1`, 12.6 µM. On the same count and under the same terms, for `Nc1ccc(Br)c2c1C(=O)c1ccccc1C2=O` the value was 3.16 µM; for `C[C@H]1C[C@@H](C)C(=O)[C@@H]([C@H](O)CC2CC(=O)NC(=O)C2)C1`, 0.57 µM. Regarding `CC1(C)C[C@H]2C=C(C=O)[C@]3(C=O)C[C@]3(C)[C@H]2C1`, the 50% effective concentration (EC50) was 3.62 µM.

`CC(C)(C)c1ccc(NC(=O)COC(=O)c2ccc([N+](=O)[O-])s2)cc1`: the EC50 was 9.71 µM. Still for that read-out and setting: for `COc1ccc2c(c1)S/C(=C\C(=O)c1ccncc1)N2C` the value was 3.97 µM; for `O=C(/C=C/c1ccccn1)c1cc(Br)ccc1O`, 8.96 µM.

For `CNc1nc(N)c([N+](=O)[O-])c(Nc2cccc(F)c2)n1`, the EC50 was 7.46 µM. In the case of `O=C1C2C3C=CC(CO)(O3)C2C(=O)N1c1ccc(-c2ccccc2)cc1` (stereo unspecified), the EC50 is 10.2 µM. The same measure, in the same setting: for `CC(Oc1ccc(Cl)cc1)C(=O)NNC(=S)NC(=O)c1ccco1` (stereo unspecified) the value was 11 µM; for `Cc1ccc(S(=O)(=O)ON2C(=O)c3ccccc3C2=O)c(C)c1`, 14 µM; for `CC(C)(C)C(=O)NC(=S)NNC(=O)c1sc2ccccc2c1Cl`, 12.3 µM. Turning to `Cc1ccc(N/N=C(\C#N)C(N)=S)c(C)c1`, the concentration giving a half-maximal response (EC50) is 5 µM. For the molecule `O=C1C=CC(=O)N1c1ccc(N2CCCCC2)cc1`, the EC50 is 5.05 µM. The same measure, in the same setting: for `O=C(OCC(=O)N1CCN(C(=O)c2ccco2)CC1)c1cc(-c2ccccc2)nc2ccccc12` the value was 6.98 µM and 3.89 µM; for `O=C(Nc1nc(-c2ccccn2)cs1)c1cc2ccccc2o1`, 11.7 µM.

Test system in a further test: not listed separately
The test is described as above. To be noted: S. cerevisiae RPL19A-GFP strain, flow cytometry fluorescence, 3 h; at 33 µM (top of the series).
Turning to `O=C(OCC(=O)N1CCN(C(=O)c2ccco2)CC1)c1cc(-c2ccc(F)cc2)nc2ccccc12`, the GFP fluorescence, lower = active (kMESF (background-subtracted)) was 32.3 (inactive).
